Literature values as cited in patent US20070111204A1, “Methods for detecting nucleic acid variations” (priority 2003, published 2007).

Test system: CGRP
Conditions: marmoset, electrical stimulation of the trigeminal ganglion (Doods et al. 2000)

NCCCC[C@H](NC(=O)[C@@H](Cc1cc(Br)c(O)c(Br)c1)NC(=O)N1CCC(N2Cc3ccccc3NC2=O)CC1)C(=O)N1CCN(c2ccncc2)CC1 [BIBN4096BS]
effect on increase of facial blood flow: blocked
